Measurements from US20220280461A1, “SOLID ORAL DOSAGE FORM COMPRISING NAPROXEN AND VITAMIN B12” (DSM IP ASSETS B.V., priority 2019, published 2022).

Assay: Bulk density, tapped density and Carr Index (flowability) of raw materials and granules
Protocol: The Carr Index is calculated by the formula 100×(1-BD/TD) and is used as an indication of the flowability.

Q: For COc1ccc2cc([C@H](C)C(=O)O)ccc2c1 [Naproxen Sodium, naproxen sodium], which “Description (physical characterization of powder)” value is on record?
A: Its value is “very lumpy”.
